Measured values: US20240207202A1, “COMBINATION THERAPIES TARGETING MITOCHONDRIAL BIOGENESIS FOR CANCER THERAPY” (The Wistar Institute of Anatomy and Biology, priority 2015, published 2024)

How the values were obtained:
[1] = tested on: 1205Lu melanoma xenograft; assay: Tumor volume of 1205Lu melanoma xenografts; assay type: in vivo, mice; conditions: 1205Lu xenografts; for % T/C (percentages of tumor volumes): Table 7, 17 days, alone or with PLX4720 200 mg/kg diet
[2] = tested on: mitochondrial respiratory chain complex subunits; assay: Expression of mitochondrial respiratory chain complex subunits in WM9 cells (qRT-PCR, RPPA, immunoblot); assay type: cell-based, human
Protocol: One μg total mRNA was reverse transcribed using a Maxima First Strand cDNA Synthesis Kit for qRT-PCR (Thermo Fisher). Fast SYBR® Green Master Mix (Life Technologies) was used with cDNA template and primers to evaluate the expression of target genes and GAPDH. Primers used were purchased from Integrated DNA Technologies. Amplifications were performed using an Applied Biosystems® 7500 Real-Time PCR System (Life Technologies). All experiments were performed in triplicate. Expression ratios of controls were normalized to 1. Please see Extended Experimental Procedures for the list of PCR primer sequences. The raw data of gene expression microarrays generated from Illumina Chips were normalized, background-corrected and summarized using the R package “lumi” (Du et al., 2008). […] To reduce false positives, the unexpressed probes were removed. The R package “limma” (Smyth, 2004, 2005) was employed for gene differential expression analysis, followed by multiple test correction by the Benjamini and Hochberg procedure (Benjamini and Hochberg, 1995). […] We also conducted GSEA as previously reported (Subramanian et al., 2005). For GSEA, we analyzed gene sets obtained from the Molecular Signatures Database (broadinstitute.org/gsea/msigdb/). The same differential expression analysis method was applied to RPPA data. Cells were washed with ice-cold PBS containing 100 μM Na3VO4 and scraped off culture dishes. After centrifugation, cell pellets were lysed in buffer containing 10 mM Tris-HCl, pH 7.8, 150 mM NaCl, 1 mM EDTA, 1% Nonidet P-40, 1 mM Na3VO4 and protease inhibitors (Roche complete protease inhibitor tablets). Lysates were cleared by micro-centrifugation and protein concentrations were determined with Protein Assay Dye Reagent Concentrate (Bio-Rad). For western blots, 25 μg of each lysate were run on 15-well 10% or 12% SDS-PAGE gels and transferred onto nitrocellulose membranes using a dye fast Trans-BlotR Turbo™ transfer system (Bio-Rad). Blots were blocked in SEA BLOCK Blocking Buffer (Thermo Scientific) diluted with 1×TBS at 1:1 ratio at room temperature for 1 h, incubated overnight with primary antibody at 4° C., stained with secondary antibodies conjugated to IRDye® Infrared Dyes (LI-COR Biosciences) and then visualized using an Odyssey flatbed scanner (LI-COR Biosciences).

WM9 cells = assay: Cell viability by CellTiter Glo in WM9 cells; assay type: cell-based, human; conditions: WM9, 72 h, Gamitrinib titrated with PLX4720 10 μM or PLX4720 10 μM and PD0325901 1 μM
Protocol: (§1) Cell viability was measured by the MTT assay or CellTiter-Glo luminescent cell viability assay (Promega). For the assessment of cell clonogenicity, cells were seeded into 12-well tissue culture plates at a density of 500 cells/well as biological triplicates in drug-free medium. Medium was refreshed every 3 or 4 days for 14 days. Colonies were then stained overnight with methanol containing 0.05% crystal violet. After extensive washing with distilled H2O, cells were air-dried and subjected to image acquisition using a Nikon D200 DLSR camera.

melanoma cells = assay: Cell clonogenicity (colony formation); assay type: cell-based, human; conditions: long-term pretreatment, Gamitrinib 0.25 and 0.5 μM in combination with PLX4720
Protocol: as §1

ATP production = ATP production in WM9 cells; assay type: cell-based, human; conditions: WM9, 72 h, Gamitrinib combined with PLX4720 10 μM
Protocol: Cells were seeded into Black Plate, Clear Bottom 96 Well Assay Plates (Corning Inc., cat. #3603) at a density of 5,000 cells/well. Immediately following the drug treatment, culture media were removed. Cells in each well were incubated with a mixture of reagents containing 50 μl DPBS, 50 μl reconstituted CellTiter-Glo® Assay and 0.5 μl CyQUANT for 10 min in the dark. Both ATP luminescence and CyQUANT fluorescence were recorded with a BioTek Multi-Mode Microplate Reader. The ATP production per cell was calculated as the ratio of ATP luminescence over CyQUANT fluorescence.

[3] = tested on: HKI, HKII, PDHE1, PDK1, PDK2, LDHA, PKM1, GLUT1 and GLUT3; assay: Expression of glycolysis regulators in WM9 cells (qRT-PCR, immunoblot); assay type: cell-based, human; conditions: WM9, Gamitrinib combined with PLX4720
Protocol: One μg total mRNA was reverse transcribed using a Maxima First Strand cDNA Synthesis Kit for qRT-PCR (Thermo Fisher). Fast SYBR® Green Master Mix (Life Technologies) was used with cDNA template and primers to evaluate the expression of target genes and GAPDH. Primers used were purchased from Integrated DNA Technologies. Amplifications were performed using an Applied Biosystems® 7500 Real-Time PCR System (Life Technologies). All experiments were performed in triplicate. Expression ratios of controls were normalized to 1. Please see Extended Experimental Procedures for the list of PCR primer sequences.
Cells were washed with ice-cold PBS containing 100 μM Na3VO4 and scraped off culture dishes. After centrifugation, cell pellets were lysed in buffer containing 10 mM Tris-HCl, pH 7.8, 150 mM NaCl, 1 mM EDTA, 1% Nonidet P-40, 1 mM Na3VO4 and protease inhibitors (Roche complete protease inhibitor tablets). Lysates were cleared by micro-centrifugation and protein concentrations were determined with Protein Assay Dye Reagent Concentrate (Bio-Rad). For western blots, 25 μg of each lysate were run on 15-well 10% or 12% SDS-PAGE gels and transferred onto nitrocellulose membranes using a dye fast Trans-BlotR Turbo™ transfer system (Bio-Rad). […]

Gamitrinib
tumor growth ([1]; Gamitrinib 15 mg/kg alone): significantly impaired tumor growth | % T/C (percentages of tumor volumes) ([1]; gamitrinib 5 mg/kg QD i.p.): 124.59% | % T/C (percentages of tumor volumes) ([1]; gamitrinib 15 mg/kg QD i.p.): 57.3% | expression of mitochondrial respiratory chain complex subunits (SDHA, SDHB, UQCRC2, ATP5H, cyclophilin D) induced by MAPK inhibitors ([2]; WM9, 72 h, Gamitrinib 1 μM with PLX4720 10 μM or PLX4720 and PD0325901 1 μM, RPPA): significant reduction | 5 mitochondrial respiratory chain complex subunits ([2]; WM9, immunoblotting, 72 h time course): down-regulated | cell viability (WM9 cells): significantly impaired cell viability | colony formation (melanoma cells): substantially inhibited colony formation | ATP production (ATP production): significantly decreased the ATP production | expression of key regulators of aerobic glycolysis, mRNA and protein [3]: substantially down-regulated
